Laboratory results as given in ChEMBL document CHEMBL1201862, “PubChem BioAssay data set” (2004).
Calls of active or inactive are those of the source.

Tests used:
[1] = molecular target: T1, Calpain-2 catalytic subunit (Sus scrofa, UniProt P43367); assay: m-calpain protease blockers, concentration series – biochemical, fluorogenic peptide substrate, dose response (AID 1420); assay type: functional
T1 sequence (P43367 whole entry): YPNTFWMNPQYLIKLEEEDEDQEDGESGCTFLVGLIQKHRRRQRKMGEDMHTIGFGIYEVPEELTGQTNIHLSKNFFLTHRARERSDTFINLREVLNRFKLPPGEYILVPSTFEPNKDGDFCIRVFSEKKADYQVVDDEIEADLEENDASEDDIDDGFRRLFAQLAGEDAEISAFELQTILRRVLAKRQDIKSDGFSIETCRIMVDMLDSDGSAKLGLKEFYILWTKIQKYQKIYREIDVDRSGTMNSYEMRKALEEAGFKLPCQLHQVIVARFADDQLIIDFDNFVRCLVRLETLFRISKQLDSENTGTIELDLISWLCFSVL

[2] = loss of viability in HepG2 cells – cell-based, CellTiter-Glo, cherry-picked, cytotoxicity control for Shn3 inhibitor project, dose response (AID 624134); assay type: functional
[3] = reduction of Shn3 3'UTR-driven luciferase in osteoblasts – cell-based, Clone20 osteoblasts, firefly luciferase, cherry-picked, dose response (AID 624132); assay type: functional;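 further: firefly luciferase luminescence from reporter carrying the Shn3 3'UTR in osteoblasts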
[4] = non-specific 3'UTR reporter inhibition in Clone20-Shn3RL – cell-based, Renilla luciferase, cherry-picked, counter-screen for Shn3 inhibitor project, dose response (AID 624133); assay type: functional
[5] = viability of uninfected HEp-2 cells – cell-based, HTS, cytotoxicity control for RSV inhibitor project, dose response (AID 2410); assay type: functional; details: human respiratory syncytial virus
[6] = microbe, parasite or virus in culture; assay type: functional; details: Mycobacterium tuberculosis
[7] = molecular target: Luciferin 4-monooxygenase (Photinus pyralis, UniProt P08659); assay: inhibition of purified Photinus pyralis luciferase – biochemical, luminescence, dose response (AID 1891)
[8] = viability of PTEN-deleted HCT116 cells – cell-based, HCT116 PTEN knockout, dose response (AID 1047); assay type: functional;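 further: HCT116 colon tumor cells with PTEN knocked out; cells exposed to compound for 60 hours before readout; potency for loss of cell viability measured by luminescence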
[9] = viability of HCT116 lacking mutant beta-catenin – cell-based, human colon tumor, dose response (AID 1045); assay type: functional;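 further: HCT116 colon tumor cells with beta catenin knocked out; cells exposed to compound for 60 hours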
[10] = HEK-293T viability loss after treatment – luminescence, T-cell screen hits, cytotoxicity control for TCR NF-kB inhibitor project, dose response (AID 489026); assay type: functional, cell-based;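 further: cells exposed to compound about 14 hours before the viability readout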
Cytochrome P450 2C19 = Cytochrome P450 2C19 (Homo sapiens, UniProt P33261); assay: Cytochrome panel assay with activity outcomes. Panel member name: p450-cyp2c19 Compounds with AC50 equal or less than 10 uM are considered active; assay type: functional; details: read-out: AC50
[11] = Luminescence Cell-Based Dose Confirmation HTS to Identify Inhibitors of Platelet Dense Granule Release. [Related pubchem assays: 1663 (Primary HTS), 1678 (Summary of Project)]; assay type: functional
[12] = blockers of HIV-1 ZM109 envelope-driven cell-cell fusion – HeLa effector, CEM target cells, luciferase, cherry-pick, dose response (AID 652058); assay type: functional, cell-based;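 further: luciferase signal from HIV-1 Env mediated cell-cell fusion of effector and target cells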
[13] = HIV-1 AD8 envelope cell-cell fusion blockers – cherry-pick, dose response (AID 652062); assay type: functional, cell-based;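 further: luciferase signal from cell-cell fusion driven by HIV-1 clade B AD8 Env; potency is for inhibitors of fusion seen as a drop in luminescence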
[14] = blockers of HIV-1 envelope-mediated cell-cell fusion – cherry-pick, dose response (AID 652057); assay type: functional, cell-based
[15] = molecular target: T2, Ubiquitin-conjugating enzyme E2 N (Homo sapiens, UniProt P61088); assay type: functional;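 further: Dose-response confirmation in a TR-FRET assay detecting UBC13-driven polyubiquitin chain formation, inhibition measured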
T2 sequence (P61088 whole entry): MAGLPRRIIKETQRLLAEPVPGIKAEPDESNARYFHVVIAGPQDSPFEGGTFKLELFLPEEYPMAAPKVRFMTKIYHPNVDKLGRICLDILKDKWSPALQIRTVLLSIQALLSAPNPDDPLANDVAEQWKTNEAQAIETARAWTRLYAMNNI

INS1 = assay: INS-1E survival protection against cytokine death – cell-based, luminescence, retest, dose response (AID 449756); assay type: functional; details: Rattus norvegicus;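 further: cell death triggered by IL-1 beta plus TNF-alpha plus IFN-gamma mixture; protective hits raise ATP signal compared with cytokine alone wells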
HEK293 = assay: EBV LMP1 TES2 canonical NF-kB signalling blockers – cell-based, HEK293, luciferase, cherry-pick, dose response (AID 588343); assay type: functional; details: Homo sapiens
[16] = NIH3T3 cell viability loss – ATP luminescence, mouse fibroblasts, counter-screen, dose response (AID 2010); assay type: functional, cell-based;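 further: cells exposed to compound for about 90 hours before reading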
[17] = Trypanosoma cruzi growth suppression in host cells – NIH3T3 host cells, beta-gal luminescence, confirmation (AID 2044); assay type: functional, cell-based;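 further: intracellular parasites grown in NIH/3T3 mouse fibroblasts as host cells; luminescent beta-galactosidase reporter signal from transgenic T. cruzi replicating inside host cells; inhibitors lower the luminescence signal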
Vero = assay: cells; assay type: functional; details: Chlorocebus sabaeus
[18] = off-target signal loss in HeLa-CEM21 co-culture – HeLa F-luc CTL cells, cherry-picked, counter-screen for HIV-1 Env fusion inhibitor project, dose response (AID 652040); assay type: functional, cell-based;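 further: potency for signal decrease marking cytotoxic or nonspecific inhibition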
[19] = alpha-synuclein stem-loop luciferase translation blockers – H4 neuroglioma cells, luminescence, confirmation (AID 1988); assay type: functional, cell-based
[20] = Luminescence Cell-Based Dose Response HTS to Identify Inhibitors of 5'UTR Stem-Loop Driven Prion Protein mRNA Translation in H4 Neuroglioblastoma Cells. [Related pubchem assays: 1827 (Project Summary), 1813 (Primary HTS)]; assay type: functional
[21] = luciferase reporter signal suppression in cells – H4 neuroglioma cells, luminescence, dose response (AID 1990); assay type: functional, cell-based

Cytochrome P450 2C19, sequence (P33261 whole entry): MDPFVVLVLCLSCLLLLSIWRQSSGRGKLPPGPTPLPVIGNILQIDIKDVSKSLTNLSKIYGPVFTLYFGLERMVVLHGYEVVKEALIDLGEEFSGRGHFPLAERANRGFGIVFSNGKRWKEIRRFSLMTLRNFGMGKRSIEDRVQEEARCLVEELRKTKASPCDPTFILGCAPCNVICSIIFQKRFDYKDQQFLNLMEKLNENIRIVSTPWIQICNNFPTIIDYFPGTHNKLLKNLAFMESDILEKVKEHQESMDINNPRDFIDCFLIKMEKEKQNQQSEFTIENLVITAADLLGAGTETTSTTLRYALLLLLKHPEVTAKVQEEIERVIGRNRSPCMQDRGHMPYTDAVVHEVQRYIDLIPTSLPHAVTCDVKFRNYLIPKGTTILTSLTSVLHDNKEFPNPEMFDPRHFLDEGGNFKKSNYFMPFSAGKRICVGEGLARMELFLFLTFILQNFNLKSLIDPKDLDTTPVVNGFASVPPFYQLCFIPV
Luciferin 4-monooxygenase, sequence (P08659 whole entry): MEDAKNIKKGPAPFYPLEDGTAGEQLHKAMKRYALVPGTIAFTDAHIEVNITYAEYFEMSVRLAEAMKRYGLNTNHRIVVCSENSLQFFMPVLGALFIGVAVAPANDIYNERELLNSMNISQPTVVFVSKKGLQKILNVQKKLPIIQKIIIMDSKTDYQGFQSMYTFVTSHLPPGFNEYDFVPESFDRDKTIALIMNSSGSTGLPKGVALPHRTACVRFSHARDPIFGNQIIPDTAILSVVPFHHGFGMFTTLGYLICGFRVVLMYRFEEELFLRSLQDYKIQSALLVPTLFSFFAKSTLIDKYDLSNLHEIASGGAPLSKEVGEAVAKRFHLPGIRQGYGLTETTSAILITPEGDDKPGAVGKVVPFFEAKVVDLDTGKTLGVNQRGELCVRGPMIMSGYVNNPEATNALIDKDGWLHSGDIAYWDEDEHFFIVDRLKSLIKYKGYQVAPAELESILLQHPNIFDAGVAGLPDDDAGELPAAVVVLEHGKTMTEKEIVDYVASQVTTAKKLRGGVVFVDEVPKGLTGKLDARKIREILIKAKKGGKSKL

SMILES: CCOC(=O)N1CCC(NC(=O)c2ccc3c(c2)ncn3C2CCCC2)CC1
- IC50 [1]: 23.1 µM (not active)

SMILES: Cc1ccc(Nc2nc(NCC3CC3)nc3ccsc23)c(C)c1
- AC50 [2]: > 70 µM (inactive)
- AC50 [3]: 5.82 µM (active)
- AC50 [4]: 19.4 µM (active)

SMILES: COc1ccc2c(c1)C(=NNC(=O)c1ccccn1)c1cc(OC)ccc1-2
- IC50 (cells): 24.6 µM (active)
- CC50 [5]: 38.6 µM (active)

SMILES: c1ccc(C[C@H]2CN=C(Nc3ccccc3)N2CCCC2CCCC2)cc1
- CC50 [6]: > 40 µM (active)

SMILES: CCCCCCCCC[n+]1cccc2c3ccccc3ccc21
- EC50 [7]: 67.9 µM (active)
- EC50 [8]: 0.868 µM (active)
- EC50 [9]: 0.798 µM (active)
- IC50 [10]: 49.8 µM (inactive)
- AC50 (Cytochrome P450 2C19): 20 µM (inconclusive)
- EC50 [11]: 64.7 µM (active)

SMILES: C[C@@H]1CN([C@H](C)CO)C(=O)c2cccc(NS(=O)(=O)c3cccs3)c2O[C@@H]1CN(C)Cc1ccc(Cl)c(Cl)c1
- AC50 [12]: 0.952 µM (active)
- AC50 [13]: 2.53 µM (active)
- AC50 [14]: 0.444 µM (active)

SMILES: NC(=O)c1nsc(C(=O)N(c2ccc(Cl)cc2)C(C(=O)NCC2CCCO2)c2cccs2)c1N (configuration not stated)
- IC50 [15]: > 20 µM (inactive)

SMILES: COc1ccccc1-c1sc2cc3c(cc2c1-c1ccc(OCCN2CCCCC2)cc1)OCO3
- IC50 [15]: > 20 µM (inactive)

SMILES: CCOC(=O)c1c(CSc2nc(C)cc(C)c2C#N)n(C)c2cc(Br)c(OC(C)=O)cc12
- AC50 (INS1): 4.21 µM (active)
- AC50 (HEK293): 31.6 µM (active)

SMILES: Cc1c(CCOC(=O)CC23CC4CC(CC(C4)C2)C3)sc[n+]1CC(=O)c1ccccc1
- IC50 [15]: > 20 µM (inactive)

SMILES: CCOCCOC(=O)c1[nH]c2c(c1C)C(=O)CC(c1cccs1)C2 (configuration not stated)
- IC50 [10]: > 80 µM (inactive)

SMILES: O=S(=O)(c1ccccc1F)N1CCCC(c2nc(O)c3nnn(Cc4ccccc4Cl)c3n2)C1 (configuration not stated)
- IC50 (cells): 47.6 µM (active)
- CC50 [5]: 47.8 µM (active)

SMILES: CC(C)Sc1nc2c3ccccc3nc-2c(O)n1C
- IC50 [1]: 0.899 µM (not active)

SMILES: Cc1cc(N2CCN(c3ccccc3)CC2)n2cc(-c3ccccc3)nc2n1
- IC50 (cells): 40 µM (active)
- CC50 [5]: 45.6 µM (active)

SMILES: CCc1ccc2nc(N(CCCN(C)C)C(=O)c3ccc4c(c3)OCCO4)sc2c1
- EC50 [16]: 8.8 µM (active)
- EC50 [17]: 0.214 µM (active)
- CC50 (Vero): > 25 µM (active)

SMILES: OCCCNCc1ccc(N(c2ccccc2)c2ccccc2)cc1
- CC50 (Vero): > 25 µM (active)

SMILES: COC(=O)[C@@]1(C)[C@H]2C(=O)N(Cc3ccccc3)C(=O)[C@H]2[C@H]2CN=C(SCc3ccccc3)N21
- AC50 [12]: 0.74 µM (active)
- AC50 [18]: 1.02 µM (active)
- AC50 [13]: 4.03 µM (active)
- AC50 [14]: 0.75 µM (active)

SMILES: O=Cc1ccc(-c2ccc([N+](=O)[O-])cc2Cl)o1
- IC50 [1]: > 50 µM (not active)

SMILES: COc1ccc2cc(C(N)=O)/c(=N\NC(=O)c3ccccc3)oc2c1
- EC50 [19]: 7.7 µM (active)
- EC50 [20]: 8.54 µM (active)
- EC50 [21]: 9.51 µM (inconclusive)
- AC50 (HEK293): 2.83 µM (active)

SMILES: Cc1cccc(N(C(=O)c2snc(C(N)=O)c2N)C(C(=O)NCC2CCCO2)c2cccs2)c1 (configuration not stated)
- IC50 [15]: > 20 µM (inactive)

SMILES: O=C(NCc1cccnc1)C1CCC(CNS(=O)(=O)c2ccc(Cl)cc2)CC1 (configuration not stated)
- IC50 [1]: 2.58 µM (not active)
